Measured values published in patent US11524040B2, “Composition for the treatment of acne” (priority 2020, dated 2022).

Columns and labels:
[1] = system: Fox-01; experiment: FOX-01 expression in human primary sebocytes; type: cell-based; conditions: 100 ug/mL
Experimental: (§1) In a study using human primary keratinocytes, two formulations were analyzed, Natural Blemish Light Lotion (NB) and Natural Blemish OTC Lotion (OTC) for unique properties. All the following experiments include a 24-hour treatment of the finished products used in the dilutions shown and were analyzed by quantitative polymerase chain reaction (qPCR).
(§2) Because sebum production is a major factor in the pathophysiology of acne vulgaris, experiments were performed using human primary sebocytes isolated from the eye area. The main function of sebocytes is considered to be the production of lipids to moisturize the skin. However, it recently became apparent that sebocytes release chemokines and cytokines and respond to proinflammatory stimuli as well as the presence of bacteria. (Attii M, Lovászi M, Garzorz N, Atenhan A, Quaranta M, Lauffer F, Konstantinow A, Küpper M, Zouboulis C C, Kemeny L, Eyerich K, Schmidt-Weber C B, Töröcsik D, Eyerich S. Sebocytes contribute to skin inflammation by promoting the differentiation of T helper 17 cells. Br J Dermatol. 2018 March; 178(3):722-730. doi: 10.1111/bjd.15879. Epub 2018 Jan. 9. PMID: 28799643). The overproduction of sebum, proinflammatory chemokines and cytokines released from sebocytes all contribute to the formation of comedones on the skin. Both OTC and NB were studied as well as AP to investigate the efficacy of these products. […]

[2] = system: Tumor necrosis factor (TNF-α); experiment: TNF-α production in human primary sebocytes; type: cell-based; conditions: human primary sebocytes in vitro; CBD isolate at same concentration as present in the invention
Experimental: as §1, §2

[3] = system: Interleukin-6 (IL-6); experiment: Interleukin-6 expression in keratinocytes; type: cell-based, human; conditions: 24-hour treatment, CBD isolate at same concentration as present in the invention
Experimental: as §1
Interleukin-6 (IL-6) is a well-established marker for inflammation. Largely produced in the skin by keratinocytes, its production leads to the activation of the STAT3 pathway which has been linked to the pathogenesis of many inflammatory skin diseases (Activation of Janus kinase signaling pathway in acne lesions, Sara Mohamed Awad, Yasmin Mostafa Tawfik, Mohamed Ahmed El-Mokhtar, Amira F. El-Gazzar, Amira Ali Abdel Motaleb First published: 19 Nov. 2020 https://doi.org/10.1111/dth.14563). In addition, IL-6 exerts stimulatory effects on T-cells and B-cells, thus favoring chronic inflammatory responses. (Gabay C. Interleukin-6 and chronic inflammation. Arthritis Res Ther. 2006; 8 Suppl 2(Suppl 2):S3. doi:10.1186/ar1917). […] That is, the compositions work better to reduce expression of IL-6 than the individual ingredients, namely CBD alone.

Q: Which “increase of Fox-01 expression” value [1] does the source give for C=C(C)[C@@H]1CCC(C)=C[C@H]1c1c(O)cc(CCCCC)cc1O [CBD isolate, Cannabidiol] here?
A: 50.8%

Q: What about the “lowered production of TNF-α” value [2] of the same molecule?
A: 14.0%

Q: What about the “reduction of expression of IL-6” value [3] of the same molecule?
A: 6.0%
